Several values for one entry are separate records, joined by “and”; a condition that tells them apart may be missing. Equal entries are not always repeated.
Test system: BDF1 mice, Adenocarcinoma 755 s.c., tumor weight T/C
Assay: NCI In Vivo Anticancer Drug Screen. Data for tumor model Adenocarcinoma 755 (subcutaneous) in B6D2F1 (BDF1) mice
Settings: endpoint: mean tumor weight, higher = larger tumour
Summary of the method: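 Tumor-bearing mice receive test compound while controls get vehicle alone. Antitumor effect is scored from survival or tumor dimensions as a T/C quotient.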

[1] = dose: 15.0 mg/kg/injection, schedule: Q01DX011 (ip), vehicle: methylcellulose (MC)

In the case of `O=c1[nH]c2[nH]c(S(=O)(=O)O)nc(=S)c2[nH]1`, the T/C (dose: 75.0 mg/kg/injection, schedule: Q01DX011 (ip), vehicle: methylcellulose (MC)) is reported as 43 % of control, the T/C (dose: 150.0 mg/kg/injection, schedule: Q01DX011 (ip), vehicle: methylcellulose (MC)) is reported as 55 % of control and the T/C (dose: 300.0 mg/kg/injection, schedule: Q01DX011 (ip), vehicle: methylcellulose (MC)) is reported as 67 % of control. The T/C (dose: 600.0 mg/kg/injection, schedule: Q01DX011 (ip), vehicle: methylcellulose (MC)) was 28 % of control.

`Cc1ccc(CSc2nc(N)nc3c2ncn3C2OC(CO)C(O)C2O)cc1` (stereo not given) was tested, and the T/C (dose: 12.5 mg/kg/injection, schedule: Q01DX011 (ip), vehicle: methylcellulose (MC)) was 57 % of control, the T/C (dose: 25.0 mg/kg/injection, schedule: Q01DX011 (ip), vehicle: methylcellulose (MC)) was 60 % of control and the T/C (dose: 50.0 mg/kg/injection, schedule: Q01DX011 (ip), vehicle: methylcellulose (MC)) was 25 % of control and 41 % of control.

`CCCN1CCC(=O)NC1=S` was tested, and the T/C [1] was 81 % of control, the T/C (dose: 31.0 mg/kg/injection, schedule: Q01DX011 (ip), vehicle: methylcellulose (MC)) was 64 % of control and the T/C (dose: 62.0 mg/kg/injection, schedule: Q01DX011 (ip), vehicle: methylcellulose (MC)) was 74 % of control. For the same compound, the T/C (dose: 125.0 mg/kg/injection, schedule: Q01DX011 (ip), vehicle: methylcellulose (MC)) was 93 % of control.

In the case of `C=CC(O)CN1CC1C` (stereo not given) (tested in a mixture with another compound), the T/C (dose: 1.9 mg/kg/injection, schedule: Q01DX011 (ip), vehicle: methylcellulose (MC)) is reported as 85 % of control, the T/C (dose: 3.75 mg/kg/injection, schedule: Q01DX011 (ip), vehicle: methylcellulose (MC)) is reported as 100 % of control and the T/C (dose: 7.5 mg/kg/injection, schedule: Q01DX011 (ip), vehicle: methylcellulose (MC)) is reported as 97 % of control. For the same compound, the T/C [1] was 71 % of control.

In the case of `O=CC1CO1` (stereo not given), the T/C (dose: 29.0 mg/kg/injection, schedule: Q01DX011 (ip), vehicle: saline) is reported as 71 % of control, the T/C (dose: 44.0 mg/kg/injection, schedule: Q01DX011 (ip), vehicle: saline) is reported as 41 % of control and the T/C (dose: 66.0 mg/kg/injection, schedule: Q01DX011 (ip), vehicle: saline) is reported as 66 % of control.

For `O=C(OCC1OC(n2cnc3c(=O)[nH]cnc32)CC1OC(=O)c1ccccc1)c1ccccc1` (stereo not given), the T/C (dose: 60.0 mg/kg/injection, schedule: Q01DX011 (ip), vehicle: carboxymethylcellulose (CMC)) was 101 % of control and the T/C (dose: 120.0 mg/kg/injection, schedule: Q01DX011 (ip), vehicle: carboxymethylcellulose (CMC)) was 90 % of control.

With `CC(=O)[C@H]1CC[C@H]2[C@@H]3CCC4=CC(=O)CC[C@]4(C)[C@H]3CC[C@]12C` the T/C (dose: 250.0 mg/kg/injection, schedule: Q01DX011 (sc), vehicle: steriod suspending solution) was 97 % of control and the T/C (dose: 500.0 mg/kg/injection, schedule: Q01DX011 (sc), vehicle: steriod suspending solution) was 46 % of control.

For `Cn1c(=O)c2c(nc(N/N=C/C(Cl)Cl)n2C)n(C)c1=O`, the T/C (dose: 2.8 mg/kg/injection, schedule: Q01DX011 (ip), vehicle: methylcellulose (MC)) was 79 % of control and the T/C (dose: 8.3 mg/kg/injection, schedule: Q01DX011 (ip), vehicle: methylcellulose (MC)) was 71 % of control.

`NC(N)=NC(CC(=O)O)c1ccccc1` (stereo not given) was tested, and the T/C (dose: 15.0 mg/kg/injection, schedule: Q01DX011 (ip), vehicle: saline) was 87 % of control, the T/C (dose: 31.0 mg/kg/injection, schedule: Q01DX011 (ip), vehicle: saline) was 99 % of control and the T/C (dose: 62.0 mg/kg/injection, schedule: Q01DX011 (ip), vehicle: saline) was 87 % of control. For the same compound, the T/C (dose: 125.0 mg/kg/injection, schedule: Q01DX011 (ip), vehicle: saline) was 107 % of control and the T/C (dose: 250.0 mg/kg/injection, schedule: Q01DX011 (ip), vehicle: saline) was 91 % of control.

With `COc1ccc(CSc2ncnc3nc[nH]c23)cc1` the T/C (dose: 1.5 mg/kg/injection, schedule: Q01DX011 (ip), vehicle: carboxymethylcellulose (CMC)) was 89 % of control, the T/C (dose: 3.0 mg/kg/injection, schedule: Q01DX011 (ip), vehicle: carboxymethylcellulose (CMC)) was 88 % of control and the T/C (dose: 6.0 mg/kg/injection, schedule: Q01DX011 (ip), vehicle: carboxymethylcellulose (CMC)) was 65 % of control. The T/C (dose: 7.8 mg/kg/injection, schedule: Q01DX011 (ip), vehicle: methylcellulose (MC)) was 58 % of control, the T/C (dose: 15.6 mg/kg/injection, schedule: Q01DX011 (ip), vehicle: methylcellulose (MC)) was 13 % of control and the T/C (dose: 31.2 mg/kg/injection, schedule: Q01DX011 (ip), vehicle: methylcellulose (MC)) was 10 % of control.
